Laboratory results reported in patent US20120094963A1, “TARGETING PRODRUGS AND COMPOSITIONS FOR THE TREATMENT OF GASTROINTESTINAL DISEASES” (of Queen Elizabeth near Dublin, priority 2008, published 2012).
Several values for one entry are separate records, joined by “and”; a condition that tells them apart may be missing. Equal entries are not always repeated. Where two headings read alike, the source gives them in different places.

What was measured:
[1] = APPROVe; beginning after 18 months of therapy; cited from earlier work
[2] = cited from earlier work; for risk of heart attack: VIGOR study patients
[3] = test system: Clostridium perfringens; conditions: anaerobic, 37° C.; for Celecoxib prodrug concentration: C. perfringens in BHI
[4] = BHI media without bacteria
[5] = test system: small intestinal polyps; conditions: 50 mg/kg qd p.o.; APCmin mice; cited from earlier work
[6] = long-term (33 months) high-dose, 400 and 800 mg daily; cited from earlier work
[7] = test system: intestinal polyps; conditions: 100 ppm in the diet; min mice; cited from earlier work

SMILES: CS(=O)(=O)c1ccc(C2=C(c3ccccc3)C(=O)OC2)cc1 [rofecoxib]
- risk of adverse thrombotic cardiovascular events [1]: increased relative risk of adverse thrombotic cardiovascular events
- risk of heart attack [2]: 0.4%
- RR of heart attack ([2]; VIGOR study, naproxen patients compared with rofecoxib patients): 0.25

SMILES: Cc1ccc(-c2cc(C(F)(F)F)nn2-c2ccc(S(=O)(=O)NC(=O)CCc3ccccc3/N=N/c3ccc(O)c(C(=O)O)c3)cc2)cc1 [PC1, 2-Hydroxy-5-(2-3{-oxo-3[4-(5-p-tolyl-3-trifluoromethyl-pyrazol-1-yl)-benzenesulfonylamino]-propyl}-phenylazo)-benzoic acid]
- Celecoxib prodrug concentration ([3]; 0 hours): 15.59 µM and 14.97 µM
- Celecoxib prodrug concentration ([3]; 8 hours): 0.00 µM
- Celecoxib prodrug concentration ([3]; 24 hours): 0.00 µM
- Azoreductase activity of Clostridium perfringens towards the prodrug [3]: Azoreductase activity was observed
- Celecoxib prodrug in BHI ([4]; 0 hours): 16.70 µM
- Celecoxib prodrug in BHI ([4]; 2 hours): 18.40 µM
- Celecoxib prodrug in BHI ([4]; 4 hours): 17.14 µM
- Celecoxib prodrug in BHI ([4]; 6 hours): 15.29 µM
- Celecoxib prodrug in BHI ([4]; 8 hours): 15.15 µM
- Celecoxib prodrug in BHI ([4]; 24 hours): 16.99 µM

SMILES: C#Cc1cccc(Nc2ncnc3cc(OCCOC)c(OCCOC)cc23)c1 [erlotinib]
- inhibition in total polyp number [5]: 57%
- reduction in the number of 1- to 2-mm-sized polyps [5]: 46%
- reduction in the number of <1-mm-sized polyps [5]: 43%
- reduction in the number of large-sized (>2 mm) polyps [5]: 96%

SMILES: Cc1ccc(-c2cc(C(F)(F)F)nn2-c2ccc(S(N)(=O)=O)cc2)cc1 [celecoxib]
- cardiovascular risk [6]: increased cardiovascular risk compared with placebo

SMILES: CC(C)c1c(C(=O)Nc2ccccc2)c(-c2ccccc2)c(-c2ccc(F)cc2)n1CC[C@@H](O)C[C@@H](O)CC(=O)O [atorvastatin]
- intestinal polyp formation [7]: significantly (P<0.002) suppressed intestinal polyp formation

SMILES: COc1ccc2cc([C@H](C)C(=O)O)ccc2c1 [naproxen]
- risk of heart attack [2]: 0.1%
